{"source": "patent US20100260691A1", "about": "“Aqueous compositions containing a hydrophobic material” (priority 2006, published 2010)", "key": {"[1]": {"test": "Critical micelle concentration by surface tension", "format": "physicochemical", "details": "in water", "from_the_text": "Suitable polymer is selected by first determining the surface tension concentration profile of the surfactant and evaluating the CMC. This is done by preparing standard solutions of the surfactant in water at different concentration and dilutions and measuring surface tension of the solutions and plotting the data as shown in FIG. 1. Surface tension may be measured using a typical Tensiometer [DuNuoy Tensiometer, Surface Tensiomat, Fisher with a platinum ring with a mean circumference of 6 cm, and a ring/wire radius ratio of 53.8. As an example: starting with 1% solution of a typical surfactant like SDS, serial dilutions are made by diluting appropriate amounts of the 1% stock solution and diluting to 0.5%, 0.2%, 0.1% and 0.05, 0.02, 0.01, 0.005, 0.002, by adding appropriate amounts of de-ionized water to a weighed quantity of the stock solution. FIG. 1 is a plot of concentration in moles per liter of the SDS and surface tension at 25° C."}, "[2]": {"test": "Particle size by Dynamic Light Scattering", "format": "physicochemical", "details": "active in SDS/PVP K-30 aqueous systems and dilutions", "from_the_text": "The hydrophobic material is present in the composition as an emulsion or a dispersion. The particle size of the hydrophobic material in the composition typically falls within the range of from about 5 to 1000 nm, more particularly from about 5 to 500 nm, still more particularly from about 10 to 100 nm and in accordance with certain embodiments from about 10 to 30 nm. Particle size refers to average particle radius and can be determined using dynamic light scattering techniques and equipment known to those of skill in the art. The compositions in accordance with certain aspects of the invention are visually clear due primarily to the small particle size of the hydrophobic material. Optical clarity can be measured using a turbidimeter or nephelometer."}, "[3]": {"test": "Solubility / solubilization of Triclosan in water and SDS solutions", "format": "physicochemical", "details": "SDS alone, no PVP", "procedure": "This concentrate was serially diluted at 3/10, 2.5/10, 2/10, 1.5/10, 1/10, 0.8/10, 0.6/10, 0.4/10 with water. […] Minimum amount of SDS required to solubilize 0.075%-0.09% Triclosan was ˜0.4-0.5% range SDS. This corresponds to about two-three times the CMC for SDS, which was determined to be about 0.17%."}, "[4]": {"details": "cited from earlier work"}, "[5]": {"test": "Visual clarity of aqueous concentrate and dilutions", "format": "physicochemical", "details": "for appearance of dilutions with water: dilution ratios as stated in each example; for appearance / dissolution of the aqueous concentrate: undiluted composition as prepared", "from_the_text": "FIG. 2 summarizes a method that can be used for optimization. Once the components are identified, optimization may be performed by preparing several mixtures of the components in different ratios and observing the phase behavior. Plot the compositions producing clear systems for concentrate and dilutions and identify regions in the triangular composition space. For a fixed amount of the hydrophobic material or active ingredient, vary the ratios of the surfactant and polymer in water. Alternately, vary the concentration of the hydrophobic material or active ingredient, polymer and surfactant in different ratio and make up to 100% in water and plot the compositions providing clear systems for the concentrate and for dilutions."}}}
{"compound": "CCCCCCCCCCCCOS(=O)(=O)[O-].[Na+]", "note": "[SDS, sodium dodecylsulfate]", "values": [{"measurement": "CMC", "setting": "[1]", "value": "about 0.17%"}]}
{"compound": "Oc1cc(Cl)ccc1Oc1ccc(Cl)cc1Cl", "note": "[Triclosan]", "values": [{"measurement": "particle size (radius)", "setting": "[2]", "value": "10-30 nm"}, {"measurement": "Minimum amount of SDS required to solubilize 0.075%-0.09% Triclosan", "setting": "[3]", "value": "0.4-0.5 % SDS"}, {"measurement": "Minimum amount of SDS to solubilize 0.3% Triclosan in water", "setting": "[3]", "value": "~2", "unit": "% SDS"}, {"measurement": "level of SDS required to solubilize 3% Triclosan", "setting": "[3]", "value": 25, "unit": "%"}, {"measurement": "solubility in water", "setting": "[4]", "value": 10, "unit": "ppm"}]}
{"compound": "CCOC(=O)c1ccc(O)cc1", "note": "[ethylparaben]", "values": [{"measurement": "appearance of dilutions with water", "setting": "[5]", "value": "clear solutions"}, {"measurement": "appearance / dissolution of the aqueous concentrate", "setting": "[5]", "value": "clear solutions"}]}
{"compound": "COC(=O)c1ccc(O)cc1", "note": "[methylparaben]", "values": [{"measurement": "appearance of dilutions with water", "setting": "[5]", "value": "clear solutions"}, {"measurement": "appearance / dissolution of the aqueous concentrate", "setting": "[5]", "value": "clear solutions"}]}
